Literature values in patent US9750683B2, “Antifungal compositions for the treatment of skin and nails” (Veloce BioPharma, LLC, priority 2012, dated 2017).
Like-named read-outs stand apart in the source and are kept apart here.

In the case of COC1=CC(=O)C[C@@H](C)[C@]12Oc1c(Cl)c(OC)cc(OC)c1C2=O [griseofulvin], the ratio of penetration (dissolved in DMSO, relative to the other solvents) is given as 60, the ratio of penetration (dissolved in alcohol) is given as 3 and the ratio of penetration (dissolved in benzene) is given as 1. For the same molecule, the ratio of penetration (dissolved in dimethylacetamide) was 40 and the ratio of penetration (dissolved in dimethylformamide) was 7.
